34 compounds from patent US20090325959A1 (priority 2008, published 2009) can be followed below.

One assay has as its target T1, ROCK2 (Homo sapiens, UniProt O75116).
T1 construct: purchased Upstate/Chemicon 14-451
As to the kind of experiment: Rho kinase inhibition assay (IMAP fluorescence polarization), ROCK2.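 Also: kinase reaction started with 10 µM ATP and run 60 min at room temperature, then phosphorylated substrate captured on IMAP beads for 30 min and fluorescence polarization read in mP.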 The assay is classed as biochemical. For orientation: In fluorescence polarisation assays a small probe gives low polarisation when free and higher when bound to something large.

Another assay addresses T2, ROCK1 (Homo sapiens, UniProt Q13464).
T2 construct: purchased Upstate/Chemicon 14-601
As to the kind of experiment: Rho kinase inhibition assay (IMAP fluorescence polarization), ROCK1.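 Also: kinase reaction run 60 min at room temperature, then phosphorylated substrate captured on IMAP beads for 30 min, with fluorescence polarization read in mP.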 The assay is classed as biochemical.

Setting [1] is: 10 μM ATP, read-out: ROCK2 Ki, Avg.

pKi: −log10 of the molar value. Read-outs that look alike come from different tables or passages of the source.

The term pKi denotes the Ki on a negative log10 scale, so that one unit is a factor of ten.

T1 sequence (O75116 11-552 limits assumed): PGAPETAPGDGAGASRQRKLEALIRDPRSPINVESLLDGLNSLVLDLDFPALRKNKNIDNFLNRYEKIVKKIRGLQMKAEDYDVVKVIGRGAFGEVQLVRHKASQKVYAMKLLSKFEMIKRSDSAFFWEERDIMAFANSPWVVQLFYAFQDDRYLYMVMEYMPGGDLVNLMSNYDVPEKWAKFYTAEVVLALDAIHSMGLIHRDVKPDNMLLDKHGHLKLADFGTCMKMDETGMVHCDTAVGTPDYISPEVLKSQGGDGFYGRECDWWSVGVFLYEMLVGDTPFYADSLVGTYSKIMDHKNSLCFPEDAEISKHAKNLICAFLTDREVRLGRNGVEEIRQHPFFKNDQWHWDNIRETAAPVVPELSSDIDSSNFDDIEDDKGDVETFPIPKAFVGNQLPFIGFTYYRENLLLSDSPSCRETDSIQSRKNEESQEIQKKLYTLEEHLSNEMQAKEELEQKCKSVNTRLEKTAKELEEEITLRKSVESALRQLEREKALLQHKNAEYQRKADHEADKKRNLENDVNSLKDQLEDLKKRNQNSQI
T2 sequence (Q13464 17-535 limits assumed): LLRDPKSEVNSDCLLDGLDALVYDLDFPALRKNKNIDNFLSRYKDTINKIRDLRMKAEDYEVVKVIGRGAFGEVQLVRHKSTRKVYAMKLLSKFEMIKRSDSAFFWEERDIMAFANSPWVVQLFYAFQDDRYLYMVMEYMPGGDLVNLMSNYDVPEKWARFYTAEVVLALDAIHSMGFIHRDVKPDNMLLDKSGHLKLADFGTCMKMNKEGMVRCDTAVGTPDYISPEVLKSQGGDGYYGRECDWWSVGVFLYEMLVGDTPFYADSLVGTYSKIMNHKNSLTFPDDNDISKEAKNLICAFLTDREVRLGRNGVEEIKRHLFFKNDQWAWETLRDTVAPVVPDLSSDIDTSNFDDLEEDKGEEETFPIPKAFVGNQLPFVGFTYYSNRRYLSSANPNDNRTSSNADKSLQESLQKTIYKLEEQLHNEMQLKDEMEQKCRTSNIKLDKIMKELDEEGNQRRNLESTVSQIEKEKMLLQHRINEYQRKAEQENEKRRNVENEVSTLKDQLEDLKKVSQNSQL
Method for ROCK1: (§1) Following the pre-incubation, 10 μM ATP was added to initiate the reaction. After 60 minutes at room temperature, Molecular Devices IMAP™ binding solution was added to bind phosphorylated substrate. After 30 minutes of incubation in the presence of the IMAP™ beads, the fluorescence polarization was read and the ratio was reported as mP. IC50 values for compounds and EC50 values for ATP were calculated using the Prism software from Graphpad.
Method for ROCK2: as §1

For `CCOC(=O)c1ccc(CN2CCC[C@H](Nc3ccc4[nH]ncc4c3)C2)cc1` [Compound 1.216, (S)-ethyl 4-((3-(1H-indazol-5-ylamino)piperidin-1-yl)methyl)benzoate], the pKi on ROCK2 (setting [1]) was 6.39; at ROCK1 (Avg, 10 μM ATP), 5.72.

Regarding `NCc1cccc(CN2CCC[C@@H](Nc3ccc4[nH]ncc4c3)C2)c1` [Compound 1.235, (R)-N-(1-(3-(aminomethyl)benzyl)piperidin-3-yl)-1H-indazol-5-amine], the negative logarithm of the Ki (pKi) was 6.47 at ROCK2 (setting [1]) and 5.86 on ROCK1 (Avg, 10 μM ATP).

As for `FC(F)(F)c1cccc(CN2CC[C@@H](Nc3cccc4cnccc34)C2)c1` [Compound 2.049, (R)-N-(1-(3-(trifluoromethyl)benzyl)pyrrolidin-3-yl)isoquinolin-5-amlne], the pKi on ROCK2 (setting [1]) is 7.32; at ROCK1 (Avg, 10 μM ATP), 6.95.

Turning to `O=C(COc1cccc(CN2CC[C@@H](Nc3cccc4cnccc34)C2)c1)N1CCOCC1` [Compound 2.043, (R)-2-(3-((3-(isoquinolin-5-ylamino)pyrrolidin-1-yl)methyl)phenoxy)-1-morpholinoethanone], the pKi on ROCK2 (setting [1]) is 7.67; on ROCK1 (Avg, 10 μM ATP), 7.31.

For the compound `OCc1ccc(CN2CCC[C@@H](Nc3ccc4[nH]ncc4c3)C2)cc1` [Compound 1.232, (R)-(4-((3-(1H-indazol-5-ylamino)piperidin-1-yl)methyl)phenyl)methanol], the pKi at ROCK2 (setting [1]) is 7.68; on ROCK1 (Avg, 10 μM ATP) it was 6.86.

Regarding `Cc1ccc(CN2CC[C@@H](Nc3cccc4c(=O)[nH]ccc34)C2)cc1OCCO` [Compound 2.093, (R)-5-(1-(3-(2-hydroxyethoxy)-4-methylbenzyl)pyrrolidin-3-ylamino)isoquinolin-1(2H)-one], the negative logarithm of the Ki (pKi) was 6.89 at ROCK2 (setting [1]) and 6.24 at ROCK1 (Avg, 10 μM ATP).

Regarding `Clc1ccc(CN2CCC[C@@H](Nc3ccc4[nH]ncc4c3)C2)cc1Cl` [Compound 1.144, (R)-N-(1-(3,4-dichlorobenzyl)piperidin-3-yl)-1H-indazol-5-amine], the pKi at ROCK2 (setting [1]) was 7.71; on ROCK1 (Avg, 10 μM ATP), 7.01.

As to `COc1ccc(CN2CCC[C@H](Nc3cccc4cnccc34)C2)cc1` [Compound 2.053, (S)-N-(1-(4-methoxybenzyl)piperidin-3-yl)isoquinolin-5-amine], the pKi on ROCK2 (setting [1]) is 6.74; at ROCK1 (Avg, 10 μM ATP), 6.02.

`c1ccc(Cn2ccnc2CN2CCC[C@@H](Nc3ccc4[nH]ncc4c3)C2)cc1` [Compound 1.263, (R)-N-(1-((1-benzyl-1H-imidazol-2-yl)methyl)piperidin-3-yl)-1H-indazol-5-amine]: the pKi is 6.34 on ROCK2 (setting [1]) and 5.67 at ROCK1 (Avg, 10 μM ATP).

`OC[C@@H](O)COc1cccc(CN2CCC[C@H](Nc3ccc4[nH]ncc4c3)C2)c1` [Compound 1.117, (R)-3-(3-(((S)-3-(1H-indazol-5-ylamino)piperidin-1-yl)methyl)phenoxy)propane-1,2-diol]: the pKi at ROCK2 (setting [1]) was 7.45; at ROCK1 (Avg, 10 μM ATP), 6.68.

Regarding `OCCCOc1cccc(CN2CCC[C@@H](Nc3ccc4[nH]ncc4c3)C2)c1` [Compound 1.231, (R)-3-(3-((3-(1H-indazol-5-ylamino)piperidin-1-yl)methyl)phenoxy)propan-1-ol], the pKi on ROCK2 (setting [1]) is 7.22; on ROCK1 (Avg, 10 μM ATP), 6.52.

On to `OCC1COc2ccc(CN3CCC[C@@H](Nc4ccc5[nH]ncc5c4)C3)cc2O1` (stereo partly drawn) [Compound 1.264, (7-(((R)-3-(1H-indazol-5-ylamino)piperidin-1-yl)methyl)-2,3-dihydrobenzo[b][1,4]dioxin-2-yl)methanol], for which the pKi is 7.23 at ROCK2 (setting [1]) and 6.31 at ROCK1 (Avg, 10 μM ATP).

For the compound `O=C(OCCOc1cccc(CN2CCC[C@@H](Nc3ccc4[nH]ncc4c3)C2)c1)c1ccccc1` [Compound 1.225, (R)-2-(3-((3-(1H-indazol-5-ylamino)piperidin-1-yl)methyl)phenoxy)ethyl benzoate], the pKi on ROCK2 (setting [1]) was 6.72; at ROCK1 (Avg, 10 μM ATP) it was 6.22.

For `Cc1ccc(CN2CC[C@@H](Nc3cccc4cnccc34)C2)cc1OCC(N)=O` [Compound 2.099, (R)-2-(5-((3-(isoquinolin-5-ylamino)pyrrolidin-1-yl)methyl)-2-methylphenoxy)acetamide], the pKi was 8.42 on ROCK2 (setting [1]); 8.42 on ROCK2 (average Ki, read-out: ROCK2 Ki); 7.82 on ROCK1 (Avg, 10 μM ATP); 7.82 on ROCK1 (average Ki).

For `CS(=O)(=O)c1cccc(CN2CCC[C@H](Nc3ccc4[nH]ncc4c3)C2)c1` [Compound 1.182, (S)-N-(1-(3-(methylsulfonyl)benzyl)piperidin-3-yl)-1H-indazol-5-amine], the negative logarithm of the Ki (pKi) was 7.51 on ROCK2 (setting [1]) and 6.39 at ROCK1 (Avg, 10 μM ATP).

Consider `Cc1ccc(CN2CC[C@@H](Nc3ccc4[nH]ncc4c3)C2)cc1OCCO` [Compound 1.276], for which the pKi is 7.91 on ROCK2 (setting [1]) and 7.19 at ROCK1 (Avg, 10 μM ATP).

For `Cc1ccc(CN2CCC[C@H](Nc3ccc4[nH]ncc4c3)C2)cc1OCC(=O)O` [Compound 1.240], the negative logarithm of the Ki (pKi) at ROCK2 (setting [1]) is 7.22; on ROCK1 (Avg, 10 μM ATP), 6.20.

For the compound `COc1c(CN2CCC[C@H](Nc3ccc4[nH]ncc4c3)C2)cccc1NS(C)(=O)=O` [Compound 1.280, (S)-N-(3-((3-(1H-indazol-5-ylamino)piperidin-1-yl)methyl)-2-methoxyphenyl)methanesulfonamide], the pKi at ROCK2 (setting [1]) is 7.42; at ROCK1 (Avg, 10 μM ATP), 6.13.

`FC(F)(F)c1cccc(CN2CC[C@@H](Nc3ccc4[nH]ncc4c3)C2)c1` [Compound 1.243, (R)-N-(1-(3-(trifluoromethyl)benzyl)pyrrolidin-3-yl)-1H-indazol-5-amine]: the pKi is 7.07 at ROCK2 (setting [1]) and 6.66 at ROCK1 (Avg, 10 μM ATP).

With `CC(C)(C)OC(=O)NCc1ccc(CN2CCC[C@H](Nc3ccc4[nH]ncc4c3)C2)cc1` [Compound 1.199, (S)-tert-butyl 4-((3-(1H-indazol-5-ylamino)piperidin-1-yl)methyl)benzylcarbamate], the pKi is 6.67 on ROCK2 (setting [1]) and 5.73 at ROCK1 (Avg, 10 μM ATP).

`CN(c1cccc(CN2CCC[C@@H](Nc3ccc4[nH]ncc4c3)C2)c1)S(C)(=O)=O` [Compound 1.207, (R)-N-(3-((3-(1H-indazol-5-ylamino)piperidin-1-yl)methyl)phenyl)-N-methylmethanesulfonamide]: the pKi at ROCK2 (setting [1]) is 7.36; on ROCK1 (Avg, 10 μM ATP), 6.29.

`COc1ccc(CN2CC[C@@H](Nc3ccc4[nH]ncc4c3)C2)cc1` [Compound 1.245, (R)-N-(1-(4-methoxybenzyl)pyrrolidin-3-yl)-1H-indazol-5-amine]: the pKi on ROCK2 (setting [1]) is 7.31; at ROCK1 (Avg, 10 μM ATP) it was 6.70.

Consider `FC(F)(F)c1cccc(CN2CCC[C@H](Nc3ccc4[nH]ncc4c3)C2)c1` [Compound 1.169, (S)-N-(1-(3-(trifluoromethyl)benzyl)piperidin-3-yl)-1H-indazol-5-amine], for which the pKi at ROCK2 (setting [1]) is 7.47; on ROCK1 (Avg, 10 μM ATP), 6.59.

As for `NS(=O)(=O)c1ccc2nc(CN3CC[C@@H](Nc4cccc5cnccc45)C3)[nH]c2c1` [Compound 2.087, (R)-2-((3-(isoquinolin-5-ylamino)pyrrolidin-1-yl)methyl)-1H-benzo[d]imidazole-6-sulfonamide], the pKi was 7.23 at ROCK2 (setting [1]) and 6.05 at ROCK1 (Avg, 10 μM ATP).

As for `OCCOc1cccc(CN2CCC(Nc3ccc4[nH]ncc4c3)CC2)c1` [Compound 1.130, 2-(3-((4-(1H-indazol-5-ylamino)piperidin-1-yl)methyl)phenoxy)ethanol], the pKi on ROCK2 (setting [1]) is 6.85; on ROCK1 (Avg, 10 μM ATP), 6.24.

As for `Brc1cccc(CN2CCC[C@@H](Nc3ccc4[nH]ncc4c3)C2)c1` [Compound 1.210, (R)-N-(1-(3-bromobenzyl)piperidin-3-yl)-1H-indazol-5-amine], the pKi on ROCK2 (setting [1]) was 7.59; on ROCK1 (Avg, 10 μM ATP), 7.02.

On to `c1cc(N2CCCC2)ccc1CN1CCC[C@@H](Nc2ccc3[nH]ncc3c2)C1` [Compound 1.248, (R)-N-(1-(4-(pyrrolidin-1-yl)benzyl)piperidin-3-yl)-1H-indazol-5-amine], for which the pKi on ROCK2 (setting [1]) is 6.05; at ROCK1 (Avg, 10 μM ATP), 5.63.

On to `CS(=O)(=O)Nc1cccc(CN2CC[C@H](Nc3ccc4[nH]ncc4c3)C2)c1` [Compound 1.095, (S)-N-(3-((3-(1H-indazol-5-ylamino)pyrrolidin-1-yl)methyl)phenyl)methanesulfonamide], for which the negative-log Ki (pKi) is 7.31 on ROCK2 (setting [1]) and 6.56 on ROCK1 (Avg, 10 μM ATP).

In the case of `CCOC(=O)COc1cccc(CN2CCC[C@@H](Nc3ccc4[nH]ncc4c3)C2)c1` [Compound 1.147, (R)-ethyl 2-(3-((3-(1H-indazol-5-ylamino)piperidin-1-yl)methyl)phenoxy)acetate], the pKi is 7.34 at ROCK2 (setting [1]) and 7.23 at ROCK1 (Avg, 10 μM ATP).

Consider `CCSc1ccc(CN2CCC[C@@H](Nc3ccc4[nH]ncc4c3)C2)cc1` [Compound 1.189, (R)-N-(1-(4-(ethylthio)benzyl)piperidin-3-yl)-1H-indazol-5-amine], for which the pKi at ROCK2 (setting [1]) was 7.46; at ROCK1 (Avg, 10 μM ATP) it was 6.73.

Consider `CCOc1cccc(CN2CCC[C@H](Nc3ccc4[nH]ncc4c3)C2)c1` [Compound 1.179, (S)-N-(1-(3-ethoxybenzyl)piperidin-3-yl)-1H-indazol-5-amine], for which the pKi on ROCK2 (setting [1]) is 7.71; on ROCK1 (Avg, 10 μM ATP), 6.53.

For the compound `CS(=O)(=O)c1cccc(CN2CCC[C@@H](Nc3ccc4[nH]ncc4c3)C2)c1` [Compound 1.160, (R)-N-(1-(3-(methylsulfonyl)benzyl)piperidin-3-yl)-1H-indazol-5-amine], the pKi on ROCK2 (setting [1]) was 7.31; on ROCK1 (Avg, 10 μM ATP), 6.66.

`OCCn1cc(CN2CCC[C@@H](Nc3ccc4[nH]ncc4c3)C2)c2ccccc21` [Compound 1.273, (R)-2-(3-((3-(1H-indazol-5-ylamino)piperidin-1-yl)methyl)-1H-indol-1-yl)ethanol]: the pKi at ROCK2 (setting [1]) is 8.09; on ROCK2 (average Ki, read-out: ROCK2 Ki) it was 8.09; on ROCK1 (Avg, 10 μM ATP) it was 7.50; at ROCK1 (average Ki), 7.50.

Consider `CN(c1cccc(CN2CCC[C@H](Nc3ccc4[nH]ncc4c3)C2)c1)S(C)(=O)=O` [Compound 1.198, (S)-N-(3-((3-(1H-indazol-5-ylamino)piperidin-1-yl)methyl)phenyl)-N-methylmethanesulfonamide], for which the pKi at ROCK2 (setting [1]) is 7.61; on ROCK1 (Avg, 10 μM ATP), 6.23.
